Results as given in ChEMBL document CHEMBL3885861, “Open TG-GATES”.

Species on record: Rattus norvegicus
Assay: Open TG-GATES - Regimen: Single
Format: toxicity, organism-based, Sprague-Dawley
Design: regimen Single, gender Male, age 6 weeks
Details: in vivo, po, 30 mg/kg, route gavage, dose level Middle; for APTT / Bas / Eos / Fbg / Hb / Ht / Lym / MCH / MCHC / MCV / Mono / Neu / PT / Plat / RBC / Ret / WBC: tissue Blood; for KIDNEY_L / KIDNEY_R / KIDNEY_TOTAL: tissue Kidney; for LIVER: tissue Liver; for A/G / ALP / ALT / AST / BUN / CRE / Ca / Cl / DBIL / GLC / IP / K / LDH / Na / PL / RALB / TBIL / TC / TG / TP / gamma-GTP: tissue Plasma

## CCN(CC)N=O [N-NITROSODIETHYLAMINE]
3 h
  TERMINAL_BW: 220.7 g
  APTT: 19.6 s
  Bas: 0%
  Eos: 1%
  Fbg: 200.2 mg/dL
  Hb: 13.1 g/dL
  Ht: 37.7%
  Lym: 80.2%
  MCH: 21.4 pg
  MCHC: 34.6%
  MCV: 61.8 fL
  Mono: 1.6%
  Neu: 16.6%
  PT: 12 s
  Plat: 118.4 x10_4/uL
  RBC: 610.2 x10_4/ul
  Ret: 7.2%
  WBC: 67.1 x10_2/uL
  KIDNEY_L: 1 g
  KIDNEY_R: 1 g
  KIDNEY_TOTAL: 2 g
  LIVER: 9.5 g
  A/G: 1.6
  ALP: 868.6 IU/L
  ALT: 37.8 IU/L
  AST: 72 IU/L
  BUN: 11 mg/dL
  CRE: 0.4 mg/dL
  Ca: 10.1 mg/dL
  Cl: 102.4 meq/L
  DBIL: 0.06 mg/dL
  GLC: 195.6 mg/dL
  IP: 8.6 mg/dL
  K: 3.6 meq/L
  LDH: 179.2 IU/L
  Na: 140.6 meq/L
  PL: 130.2 mg/dL
  RALB: 3.3 g/dL
  TBIL: 0.1 mg/dL
  TC: 82.6 mg/dL
  TG: 38.6 mg/dL
  TP: 5.4 g/dL
  gamma-GTP: 0.8 IU/L
6 h
  TERMINAL_BW: 224.6 g
  APTT: 18.5 s
  Bas: 0.6%
  Eos: 1%
  Fbg: 234.2 mg/dL
  Hb: 13.4 g/dL
  Ht: 38.8%
  Lym: 78.8%
  MCH: 21.8 pg
  MCHC: 34.5%
  MCV: 63.1 fL
  Mono: 2.8%
  Neu: 16.2%
  PT: 12.4 s
  Plat: 135.1 x10_4/uL
  RBC: 615.6 x10_4/ul
  Ret: 7.7%
  WBC: 111.7 x10_2/uL
  KIDNEY_L: 1 g
  KIDNEY_R: 1 g
  KIDNEY_TOTAL: 1.9 g
  LIVER: 9.9 g
  A/G: 1.6
  ALP: 932.2 IU/L
  ALT: 40.6 IU/L
  AST: 78 IU/L
  BUN: 14.2 mg/dL
  CRE: 0.4 mg/dL
  Ca: 10.3 mg/dL
  Cl: 104.2 meq/L
  DBIL: 0.072 mg/dL
  GLC: 186.4 mg/dL
  IP: 8.3 mg/dL
  K: 3.9 meq/L
  LDH: 224 IU/L
  Na: 141 meq/L
  PL: 130.8 mg/dL
  RALB: 3.3 g/dL
  TBIL: 0.1 mg/dL
  TC: 81.4 mg/dL
  TG: 37.8 mg/dL
  TP: 5.4 g/dL
  gamma-GTP: 1.6 IU/L
9 h
  TERMINAL_BW: 224.1 g
  APTT: 18.7 s
  Bas: 0.4%
  Eos: 1%
  Fbg: 229 mg/dL
  Hb: 13.7 g/dL
  Ht: 39.6%
  Lym: 79.6%
  MCH: 21.5 pg
  MCHC: 34.4%
  MCV: 62.4 fL
  Mono: 3%
  Neu: 15%
  PT: 12.4 s
  Plat: 126.6 x10_4/uL
  RBC: 635.4 x10_4/ul
  Ret: 7.1%
  WBC: 94.4 x10_2/uL
  KIDNEY_L: 1 g
  KIDNEY_R: 1 g
  KIDNEY_TOTAL: 1.9 g
  LIVER: 10 g
  A/G: 1.7
  ALP: 978.4 IU/L
  ALT: 45.6 IU/L
  AST: 80.4 IU/L
  BUN: 15.4 mg/dL
  CRE: 0.4 mg/dL
  Ca: 10.4 mg/dL
  Cl: 103.4 meq/L
  DBIL: 0.088 mg/dL
  GLC: 186 mg/dL
  IP: 8.6 mg/dL
  K: 3.8 meq/L
  LDH: 191.6 IU/L
  Na: 141.2 meq/L
  PL: 130.4 mg/dL
  RALB: 3.5 g/dL
  TBIL: 0.1 mg/dL
  TC: 76.8 mg/dL
  TG: 44.8 mg/dL
  TP: 5.5 g/dL
  gamma-GTP: 1.4 IU/L
24 h
  TERMINAL_BW: 225 g
  APTT: 17.9 s
  Bas: 1%
  Eos: 1%
  Fbg: 217.4 mg/dL
  Hb: 14 g/dL
  Ht: 41.2%
  Lym: 81%
  MCH: 21.6 pg
  MCHC: 33.9%
  MCV: 63.8 fL
  Mono: 3%
  Neu: 13.6%
  PT: 12.7 s
  Plat: 125.9 x10_4/uL
  RBC: 645.6 x10_4/ul
  Ret: 6.7%
  WBC: 95.1 x10_2/uL
  KIDNEY_L: 1 g
  KIDNEY_R: 1 g
  KIDNEY_TOTAL: 2 g
  LIVER: 9.5 g
  A/G: 1.6
  ALP: 918.6 IU/L
  ALT: 37.8 IU/L
  AST: 71 IU/L
  BUN: 12.8 mg/dL
  CRE: 0.4 mg/dL
  Ca: 10.7 mg/dL
  Cl: 103.4 meq/L
  DBIL: 0.084 mg/dL
  GLC: 193 mg/dL
  IP: 9 mg/dL
  K: 3.9 meq/L
  LDH: 212.4 IU/L
  Na: 140.6 meq/L
  PL: 135.8 mg/dL
  RALB: 3.3 g/dL
  TBIL: 0.1 mg/dL
  TC: 78.4 mg/dL
  TG: 47.2 mg/dL
  TP: 5.3 g/dL
  gamma-GTP: 1.4 IU/L
